From US7358221B1, “Metathesis depolymerizable surfactants” (Sandia Corporation, priority 2004, dated 2008)

Legend:
[1] = Critical micelle concentration by dynamic surface tension (surface tensiometry); format: physicochemical; details: equilibrium mode, aqueous solution
Excerpt: FIGS. 5 and 6 also show the response of dynamic surface tension values (operated in equilibrium mode) measured as a function of concentration for surfactants 4 and the anionic salt 7 in aqueous solution. The physicochemical properties of a surfactant change to a significant degree after reaching the cmc due to the presence of micelles and a surfactant-saturated air-water interface.
A comprehensive listing of all the physicochemical properties calculated for these surfactants is shown above in Table 1.
The surfactant concentration at the intersection of the two lines which are least-squares fit to (1) the rapidly changing surface tension readings and (2) the low, relatively constant surface tension readings at high surfactant concentrations defines the cmc by this method. The cmc's calculated from the surface tension data of surfactants 4 and 7 are 1.9 mmol and 5.9 mmol, respectively. The higher values for cmc as determined by dynamic surface tension compared to Orange OT dye solubilization can be attributed to static (dye solubilization) vs. dynamic (surface tension) measurements of the microenvironment.

[2] = Ring-closing metathesis degradation followed by 1H NMR in chloroform; format: physicochemical; details: 2 mol. % RuCl2[C21H26N2][CHC6H5]P(C6H11)3 (2nd generation Grubbs catalyst), 25° C.
Excerpt: Decomposition of these surfactant molecules takes place by the action of a ring closing metathesis-active transition metal catalyst on the tail portion of the surfactant, as illustrated in FIG. 8. It is believed that initiation of the decomposition reaction produces styrene. Intramolecular reaction of double bonds further up the tail group produces cyclohexene faster than cross-metathesis with another surfactant.
Cyclohexene formation is clearly evident in the solution within five minutes of adding the catalyst, as evidenced by the appearance of broad singlets at δ=1.62 and 1.97 ppm and a characteristic singlet at δ=5.67 ppm.
^1H NMR also indicates the presence of the former head group as 7-(N,N,N-trimethylammonium)hept-1-enyl iodide (unchanged chemical shift at δ=3.48 ppm from starting surfactant 4) as well as the cross-coupled product, cis/trans-1,12-bis(trimethylammonium)dodec-6-enyl diiodide (equivalent methyls at δ=3.43 ppm).
Within 5 minutes after the introduction of catalyst, cyclohexene was clearly present in solution as evidenced by the appearance of broad singlets at δ=1.62 and 1.97 ppm and a characteristic singlet at δ=5.67 ppm (see FIG. 10).
Additionally, peaks clearly assignable to allyl malonic acid (δ=5.12-5.22 ppm, δ=3.57 ppm, δ=2.68 ppm) were present, by comparison with an authentic sample. […]

Molecule | cmc as determined by surface tensiometry [1] [mmol] | time to nearly complete decomposition [2] [min]
C=CCCCCC=CCCCCC=CCCCCC[N+](C)(C)C.[I-] [Surfactant 4, trimethylnonadeca-6,12,18-trienylammonium iodide] | 1.9 | ≤ 60
dipotassium heneicosa-2,8,14,20-tetraenyl malonate [Surfactant 7] | 5.9 | 
